One assay concerns B16-F10 melanoma cells. Nature of the assay: Experimental pulmonary metastasis in mice. The format is in vivo, C57BL/6 mice. The procedure, abridged:
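Female C57BL/6 mice (6 weeks) received 2×10^5 B16-F10 cells i.v. via tail vein. Peptide, control peptide (10 mg/kg) or DMSO vehicle given i.p. every 2 days, 5 mice per group. Visible surface lung colonies counted under a dissecting microscope on day 8.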

In assay [1] the test system is HUVECs. Nature of the assay: Apoptosis assay (annexin V-FITC). The format is cell-based. Particulars: treatment for 16 hrs; annexin V-FITC staining. How it is done:
The percentage of apoptotic HUVEC cells was assayed using TACS annexin V-FITC kit. The percentage of annexin V-positive cells was determined using in situ staining according to the manufacturer's instruction. The cell number was determined by counterstaining with Hoechst 33342. The nuclei in ten randomly selected fields of the three different chambers (˜7200 cells) were counted. Specimens were examined and photographed on a Zeiss epifluorescence microscope (×100, 10 fields/sample). Pictures were recorded on Zeiss software.

Another assay deals with RPMI8226 cells. Nature of the assay: MTT assay, VEGF-induced proliferation of RPMI8226 cells. The format is cell-based. The essentials:
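After 24 h serum starvation, cells seeded at 3×10^5/well and cultured 24 h in serum-free RPMI1640 with 25 μM peptide, VEGF serving as proliferation stimulus. Viability by MTT (4 h, 37° C), DMSO solubilisation 20 min, absorbance at 570 nm.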
On the technique in general: Tetrazolium assays rely on reduction of a dye to a coloured formazan, in cell work by metabolically active cells.

Assay [2] has as its system human uterine sarcoma cells (MES-SA/Dx5). Nature of the assay: Tumorigenicity assay, xenografted human uterine sarcoma. In kind it is in vivo, nude mice. Particulars: 10 mg/kg intraperitoneal every 2 days for 10 days. How it is done:
MES-SA/Dx5 cells (5×10^6 cells in 0.1 ml) were implanted by subcutaneous injections in the right flank region of female nude mice (n=24, each animal weighted about 20 g before the assay began). The experiments were approved by the Mackay Memorial Hospital Review Board for animal investigation. Treatment was initiated in animals when the tumor volume was above 80 mm^3. Vehicle DMSO, the present synthetic peptide or the control peptide (10 mg/kg) was administered by intraperitoneal injections every 2 days. Tumor progression was monitored for 10 days; size of the tumor was measured every 3 to 5 days with a caliper and the volume was calculated using the following formula: ½×length×width^2.
To this purpose, human uterine sarcoma cells (MES-SA/Dx5) were implanted in nude mice to induce tumor formation, and when the volume of each tumor reached 80 mm^3, animals were then treated with vehicle alone, or the 7-mer peptide at the dose of 10 mg/kg, every 2 days for 10 days. Results are depicted in FIG. 9.

Assay [3] relates to HUVECs. Briefly: VEGF-induced HUVEC proliferation assay. The format is cell-based. Particulars: VEGF (10 ng/mL) + 25 μM peptide; vs untreated HUVECs.

Entries after “also recorded” stand apart in the source; their conditions may differ. Ends that are not written are not given here.

Take “NH2-Asp-Leu-Tyr-Arg-Val-Arg-Ser-COOH (DLYRVRS; not fully specified (N-terminus, C-terminus); printed as NH2-Asp-Leu-Tyr-Arg-Val-Arg-Ser-COOH) [7-mer]”: the “effect on number of colonies on the surface of the lung / in vivo metastasis” value in the assay on B16-F10 melanoma cells (10 mg/Kg intraperitoneal every 2 days) is reported as “capable of reducing the number of colonies; also recorded: may suppress in vivo metastasis”. The No. lung colonies with B16-F10 melanoma cells (10 mg/Kg intraperitoneal every 2 days, day 8, n = 5) is listed as 72 ± 16.0. For the same substance, the “Inhibition (%)” value in the assay on B16-F10 melanoma cells (lung colonies vs vehicle, 10 mg/Kg) came out at 67.9%. Further, in the assay on HUVECs [1], the “percentage of apoptotic HUVECs” value came out at 32.4±3.8%. Moreover, in the assay on RPMI8226 cells (1 to 25 μM, RPMI8226 cells), the “dose dependence of inhibitory action on VEGF-induced cell proliferation” value is listed as “dose dependent manner”. Further, in the assay on RPMI8226 cells (VEGF 50 ng/ml, 25 μM peptide, 24 hrs, MTT), the “effect on VEGF-induced proliferation of RPMI8226 cells” value was “suppressed”. The tumor volume in assay [2] stood at 125±15.4 mm^3. Further, the “Cell number (Fold)” value in the assay on HUVECs [3] is listed as 0.95 ± 0.050 Fold.

The values above are taken from patent publication US10463709B2, “Short synthetic peptide for treating diseases and/or conditions related to angiogenesis” (MacKay Memorial Hospital, priority 2015, dated 2019).
